Laboratory results from publication PMC6152024 (Molecules : A Journal of Synthetic Chemistry and Natural …, 2017).

How the values were obtained:
[1] = test system: hepatic CYP3A mRNA; assay: CYP3A expression assay (real-time PCR) in rat liver; format: in vivo; settings: normalized to GAPDH
Description: Rats were randomly divided into four groups (groups A−D, n = 5), respectively. In brief, rats in group A (vehicle control group) were i.g. administered with saline (10 mL/kg), and were euthanized 72 h later. Rats in groups B−D were i.g. administered with Gom A at dose of 20.8 mg/kg (50 µmol/kg, same with pharmacokinetic study), and euthanized 24, 48 and 72 h respectively after Gom A treatment. After euthanization, rat livers were immediately collected, washed with ice-cold saline, and stored at −80 °C for CYP3A protein expression assay.
To determine CYP3A mRNA content in rat liver, the liver samples were homogenized and the total RNA was extracted from liver samples using RNeasy Mini Kit according to the manufacturer’s instructions (Qiagen). The concentration of total RNA was determined by UV spectra at 260/280 nm, and the purity was determined by calculating the ration of UV absorbance. 2 µg of total RNA in a total volume of 50 µL (1 µg/25 µL) was reverse transcribed into template cDNA using dNTP mix (1 mM), random primers (0.5 µg/mL), AMV RT (22 U/µL), MgCl2 (25 mM) and RT buffer (10×).
For qRT-PCR, forward and reverse primer sequences (Table 2) of CYP3A gene were used. In a Stratagene Mx3005P sequence detection system (Agilent Technologies Agilent, Santa Clara, CA, USA), 50 ng of cDNA/sample and 10 µM forward and reverse primers were added to a total reaction mixture of 20 µL of SYBR Select Master Mix (Invitrogen). GAPDH was applied as the house-keeping gene. All assays were performed in triplicate. […] The CYP3A mRNA levels of groups A−D were expressed as a ratio of induced to vehicle control group (group A).

[2] = test system: rat hepatic CYP3A; assay: Effect of Gom A pretreatment on rat hepatic CYP3A activity (liver microsomes from pretreated rats); format: in vivo; settings: RLMs; for DCCTX production decrease compared with control group: CTX 100 ng/mL; for rat hepatic CYP3A activity, % of the control group activity: Tes 25 µM
Description: Rats were randomly divided into four groups (control group; pretreatment groups: 0.5 h group, 6 h group, 12 h group). Rats in control group and pretreatment groups were administrated (i.g.) with saline (2 mL/kg) and Gom A (20.8 mg/kg) respectively. In control group, rats were anesthetized 0.5 h after administration. In pretreatment groups, rats were anesthetized 0.5 h, 6 h, 12 h after Gom A pretreatment respectively. After anesthesia, the rat livers were infused with cool saline. After infusion, rats were euthanized and livers were collected. The liver microsomes were prepared using calcium precipitation method. Briefly, livers were weighted, washed with cool PBS (0.1 M), and then homogenized in cool Tris-PBS (50 mM Tris, w/v = 1:4). The mixture was centrifuged at 14,000 g for 20 min at 4 °C. The supernatant was mixed with CaCl2 solution (88 mM, vsupernantant/vCaCl2 = 10:1) and then centrifuged at 14,000 g for 20 min at 4 °C. The precipitate was resuspended in Tris-PBS and centrifuged (14,000 g, 4 °C, 20 min). Finally, the precipitate was resuspended in PBS containing 250 mM glucose, giving a concentration of 5 mg protein/mL. The prepared microsomes were stored at −80 °C until use.
To determine the effect of Gom A pretreatment on rat hepatic CYP3A activity, liver microsomes from control and pretreatment groups were incubated with Tes (25 µM) and CTX (100 ng/mL) respectively. The incubation procedures were similar with Section 4.3.1 and Section 4.3.4 for Tes and CTX incubation, respectively. For incubations using Tes, 0.5 mg/mL RLMs was incubated with 25 µM Tes in PBS (0.1 M) containing NADPH-gs at 37 °C in a total volume of 200 µL. After a 5 min warm up period, reactions were initiated with addition of NADPH-gs. Incubations were conducted at 37 °C for 10 min and then terminated by the addition of 200 µL ice-cold acetonitrile containing 18 ng/mL phenacetin (IS-I). For incubations using CTX, 0.5 mg/mL RLMs was incubated with 100 ng/mL CTX in PBS (0.1 M) containing NADPH-gs at 37 °C in a total volume of 200 µL. After a 5 min warm up period, reactions were initiated with addition of NADPH-gs. Incubations were conducted at 37 °C for 60 min and then terminated by the addition of 200 µL ice-cold acetonitrile containing 6 ng/mL of TNZ (IS-II).
After reaction termination, concentration of 6OH-Tes and DCCTX were determined.

[3] = molecular target: CYP3A (Homo sapiens, UniProt P08684); assay: Reversible CYP3A inhibition, testosterone 6β-hydroxylation in human liver microsomes; format: in vitro ADME; settings: HLMs, Lineweaver-Burk plot
Description: A NADPH regenerating system (NADPH-gs, containing 10 mM glucose-6-phosphate, 5 mM magnesium chloride, 1 U/mL glucose-6-phosphate dehydrogenase and 1 mM NADP+) was constructed. The metabolite of Tes, 6OH-Tes, was assayed by UHPLC-MS method (I) for CYP3A activity assessment.
The CYP3A inhibition by Gom A was preliminarily evaluated. […] After a 5 min warm up period, reactions were initiated with addition of NADPH-gs. Incubations were conducted at 37 °C for 10 min and then terminated by the addition of 200 µL ice-cold acetonitrile containing 18 ng/mL phenacetin (IS-I). […] Incubations were processed and terminated as described earlier.
Pharmacokinetic profiles of CTX and DCCTX were estimated by one-compartmental model using the DAS 2.0 software ([…], Medical College of Wannan, Anhui, China). Data were expressed as mean ± SD. Comparisons between two groups were performed using one-way ANOVA followed by LSD test in the condition of variance homogeneity or Dunnett T3 test in the case of variance heterogeneity. […] IC50 values of Gom A were determined by nonlinear regression analysis using GraphPad Prism 5.01 software (GraphPad Software Inc., San Diego, CA, USA). The mode of inhibition was verified by Lineweaver-Burk plots of the enzyme kinetic data, and the KI value was determined by linear regression analysis with GraphPad Prism 5.01 (GraphPad Software Inc.). […]

[4] = 0.5 h after Gom A 20.8 mg/kg i.g.
[5] = 6 h after Gom A 20.8 mg/kg i.g.
[6] = 12 h after Gom A 20.8 mg/kg i.g.

Sequence of CYP3A (P08684 2-503): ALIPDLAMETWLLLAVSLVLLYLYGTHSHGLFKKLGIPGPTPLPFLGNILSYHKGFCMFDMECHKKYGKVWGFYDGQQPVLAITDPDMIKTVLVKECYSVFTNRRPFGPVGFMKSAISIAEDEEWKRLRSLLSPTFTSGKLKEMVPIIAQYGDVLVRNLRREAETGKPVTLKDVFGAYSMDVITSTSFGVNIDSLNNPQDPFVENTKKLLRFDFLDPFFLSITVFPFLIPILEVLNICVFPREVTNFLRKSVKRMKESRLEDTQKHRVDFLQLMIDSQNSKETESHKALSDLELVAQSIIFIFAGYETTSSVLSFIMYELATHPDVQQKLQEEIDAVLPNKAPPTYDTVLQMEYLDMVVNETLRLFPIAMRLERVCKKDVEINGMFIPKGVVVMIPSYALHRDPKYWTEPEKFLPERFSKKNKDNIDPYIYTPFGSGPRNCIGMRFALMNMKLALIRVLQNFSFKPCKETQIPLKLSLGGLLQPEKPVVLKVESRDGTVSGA

Gomisin A [Gom A]
hepatic CYP3A mRNA expression increase vs vehicle group ([1]; 24 h after single dose Gom A 20.8 mg/kg i.g.): 73 fold
hepatic CYP3A mRNA expression increase vs vehicle group ([1]; 48 h after single dose Gom A 20.8 mg/kg i.g.): 18 fold
hepatic CYP3A mRNA expression increase vs vehicle group ([1]; 72 h after single dose Gom A 20.8 mg/kg i.g.): 8 fold
DCCTX production decrease compared with control group [2, 4]: 54.7%
rat hepatic CYP3A activity, % of the control group activity [2, 4]: 52.1%
DCCTX production decrease compared with control group [2, 5]: 52.0%
rat hepatic CYP3A activity, % of the control group activity [2, 5]: 37.3%
DCCTX production decrease compared with control group [2, 6]: 40.5%
rat hepatic CYP3A activity, % of the control group activity [2, 6]: 61.2%
mode of inhibition [3]: competitive inhibitor
